# Calls of active or inactive are those of the source. The rule behind the calls is not given here.
# Key:
# [1] = test system: Bacillus subtilis; assay: Induction of membrane associated proteins mislocalization in Bacillus subtilis subsp. subtilis str. 168 assessed as reduction in GFP-MinD protein localization by fluorescence assay; type: functional, organism-based
# [2] = test system: Bacillus subtilis; assay: Increase in bacterial membrane permeability in Bacillus subtilis subsp. subtilis str. 168 at 1 times MIC pre-treated for 5 mins and measured 30 mins post dye addition by propidium iodide dye based flow cytometry; type: functional, organism-based
# [3] = test system: Bacillus subtilis; assay: Induction of transmembrane potential loss in Bacillus subtilis subsp. subtilis str. 168 at 1 times MIC pre-treated for 5 mins and measured 15 mins post dye addition by DiOC2 dye based flow cytometry; type: functional, organism-based
# [4] = test system: Bacillus subtilis; assay: Antimicrobial activity against Bacillus subtilis subsp. subtilis str. 168 after 18 hrs by macro-dilution method; type: functional; details: subsp. subtilis str. 168, 18 h
# [5] = test system: Bacillus subtilis; assay: Protonophore activity in Bacillus subtilis subsp. subtilis str. 168 assessed as induction of rapid equlibration of delta-pH at 1 times MIC; type: functional, organism-based
# [6] = test system: C2C12; assay: Induction of membrane disruption in mouse C2C12 cells assessed as maximum increase in oxygen consumption rate at 0.6 uM; type: functional, cell-based
# [7] = test system: C2C12; assay: Induction of membrane disruption in mouse C2C12 cells assessed as increase in oxygen consumption rate at 0.1 to 1.2 uM; type: functional, cell-based
# [8] = test system: Bacillus subtilis; assay: (§1) Induction of transmembrane potential loss in Bacillus subtilis subsp. subtilis str. 168 assessed as lambda575/lambda530 fluorescence emission intensity ratio at 1 times MIC pre-treated for 5 mins and measured 15 mins post dye addition by DiOC2 dye based flow cytometry; type: functional
# [9] = test system: C2C12; assay: Induction of membrane disruption in mouse C2C12 cells assessed as change in oxygen consumption rate; type: functional, cell-based
# [10] = test system: Bacillus subtilis; assay: as §1, with “for 20” for “for 5”, “cytometry (reference value: 0.257 +/- 0.003 no unit)” for “cytometry”; type: functional
# [11] = test system: Bacillus subtilis; assay: Protonophore activity in Bacillus subtilis subsp. subtilis str. 168 assessed as induction of rapid equlibration of delta-pH at 30 uM; type: functional, organism-based
# [12] = test system: C2C12; assay: Induction of membrane disruption in mouse C2C12 cells assessed as maximum increase in oxygen consumption rate at 30 uM; type: functional, cell-based
Structure (SMILES),Activity [1],Activity [2],Activity [3],MIC [4] [µM],Activity [5],Activity [6],Activity [7],Ratio [8],Activity [9],Ratio [10],Activity [11],Activity [12]
NC(=O)c1c(F)ccc(OCc2nc3cc(Cl)cnc3s2)c1F,inactive,inactive,inactive,2.5,,,,,,,,
N#CC(C#N)=NNc1cccc(Cl)c1 [CARBONYL CYANIDE M-CHLOROPHENYLHYDRAZONE],Active,inactive,,10,Active,Active,Active,0.045,,,,
CC(C)c1c(O)ccc2c1CC[C@H]1C(C)(C)CCC[C@]21C [TOTAROL],Active,Active,Active,2.5,inactive,,,,inactive,,,
CO/N=C(\C(=O)N[C@@H]1C(=O)N2C(C(=O)O)=C(COC(N)=O)CS[C@H]12)c1ccco1 [CEFUROXIME],inactive,inactive,,20,,,,,,0.306,,
Oc1ccc(Cl)cc1Cc1cc(Cl)cc(Cc2cc(Cl)ccc2O)c1O,Active,inactive,Active,0.16,inactive,,,,,,Active,Active
COC(=O)CC1Cc2cc3cc(OC)c(-c4c(OC)cc5cc6c(c(O)c5c4O)C(=O)OC(CC(=O)OC)C6)c(O)c3c(O)c2C(=O)O1 (stereo unspecified) [VIRIDITOXIN],Active,,inactive,0.63,inactive,,,,,,,
C[n+]1cc2c3c(ccc2c2ccc4cc5c(cc4c21)OCO5)OCO3 [SANGUINARIUM],,Active,Active,10,inactive,,,,,,,
O=C/C=C/c1ccccc1 [CINNAMALDEHYDE],Active,Active,Active,2500,inactive,,,,,,,
